What was measured:
[1] = system: breast cancer (MCF-7); test: Calcein AM cytotoxicity assay, MCF-7; format: cell-based; settings: 72 hrs
Source text: (§1) One of the parameters used as the base for cytotoxic analysis is metabolic activity of viable cells, such as microtiter assay, which uses the Calcein AM, is now widely used to quantitate cell proliferation and cytotoxicity. The quantity of reduced Calcein AM corresponds to the number of viable cells in culture. The cell lines of breast cancer (MCF-7), mousse fibroblasts (NIH3T3), human erythromleukemia (K562) were used for routine screening of cytotoxicity of the compounds. The cells were maintened in Nunc/Corning 80 cm^2 plastic bottles and grown in media for cell culture (DMEM containing 5 g/l of glucose, 2 mM of glutamin, 100 U/ml of penicilin, […] of streptomycin, 10% of fetal bovine serum and sodium hydrogencarbonate). Cell suspensions were diluted according to cell types and according to expected final cell density (10^4 of cells per well according to characteristics of cell growth), pipetted 80 μl of cell suspension on 96-well microtiter plates. Innoculates were stabilized by 24 hrs preincubation at 37° C. in CO2. Particular concentrations of tested compounds were added in time zero as 20 μl aliquotto wells of microtiter plates. Usually, the compounds were diluted into six concentrations in four-fold dilution series. In routine testing, the highest well concentration was 166.7 μM, of change dependent on the substance. All drug concentrations were examined in duplicates. The incubation of cells with tested derivatives lasted 72 hrs at 37° C., 100% humidity and in the atmosphere of CO2. At the end of the incubation period, the cells were tested and analysed according to the addition of Calcein AM (Molecular probes) solution and the incubation lasted for next 1 hour. Fluorescence (FD) was measured using Labsystem FIA reader Fluorskan Ascent (Microsystems). The survival of tumor cells (The tumor cell survival-TCS) was counted according to equation: […]=(FDwell with derivative/FDcontrol well)×100%. The value of GI50, that is equal to the concentration of compound at which 50% of tumour cells are terminated. To evaluate the antitumor activity was tested toxicity of new derivatives on panel of cell lines of different histogenetic and species origin (Tab. 7, G150 concentration given in μM). […] Effective derivatives killed tumor cells in concentrations close to 0.1 to 50. None of the newly prepared compounds only reached the value.

[2] = system: human erythromleukemia (K562); test: Calcein AM cytotoxicity assay, K562; format: cell-based; settings: 72 hrs
Source text: as §1

[3] = system: mousse fibroblasts (NIH3T3); test: Calcein AM cytotoxicity assay, NIH3T3; format: cell-based, mouse; settings: 72 hrs
Source text: as §1

[4] = system: detached leaf segments of Triticum aestivum cv. Hereward; test: Senescence bioassay on wheat leaf segments (chlorophyll retention); settings: for maximum effective concentration: 96 h in the dark at 25° C.; for activity (%) [10^−4 mol · l^−1 BAP = 100%]: chlorophyll retention at maximum effective concentration, 96 h dark
Experimental: Seeds of winter wheat, Triticum aestivum cv. Hereward, were washed under running water for 24 hours and then sown on vermiculite soaked with Knop's solution. They were placed in the growth chamber at 25° C. with a 16/8 h light period at 50 μmol·m^−2·s^−1. After 7 days, the first leaf was fully developed and the second leaf had started to grow. A tip section of the first leaf, approximately 35 mm long, was removed from 5 seedlings and trimmed slightly to a combined weight of 100 mg. The basal ends of the five leaf tips were placed in the wells of a microtiter polystyrene plate containing 150 μL, of the tested derivative solution each. The entire plate was inserted into a plastic box lined with paper tissues soaked in distilled water to prevent leaf sections from drying out. After 96 h incubation in the dark at 25° C., the leaves were removed and chlorophyll extracted by heating at 80° C. for 10 min in 5 mL of 80% ethanol (v/v). The sample volume was then restored to 5 mL by the addition of 80% ethanol (v/v). The absorbance of the extract was recorded at 665 nm. In addition, chlorophyll extracts from fresh leaves and leaf tips incubated in deionised water were measured. The results are means of five replicates and the entire test was repeated twice. […] The compounds to be tested were dissolved in dimethylsulfoxide (DMSO) and the solution brought up to 10^−3M with distilled water. This stock solution was further diluted with the respective media used for the biotest to a concentration ranging from 10^−8M to 10^−4M. […] The activity obtained for 10^−4 M of BAP was postulated as 100%.

[5] = system: skin fibroblasts BJ and keratinocytes HaCaT; test: MTT in vitro cytotoxicity test for skin cells; format: cell-based; settings: for IC50: MTT, 72 hour treatment, BJ and HaCaT, maximal concentration 50 microM
Experimental: MTT assay is a standard test of toxicity based on photometric measurement of the ability of metabolically active cells to reduce MTT (3-(4,5-dimethylthiazol-2-yl)-2,5-diphenyltetrazolium bromide). Using the assay, the effects of 72 hour treatments with several concentrations of the compounds (sixfold dilution, maximal concentration=50 microM) on viability of skin fibroblasts BJ and keratinocytes HaCaT were evaluated. About 5,000 cells were seeded per well of a 96-well plate 24 hours before the treatment. DMSO vehiculum was used as a negative control. After 72 hour treatment, new medium with MTT (Sigma, M2128) was added to a final concentration of 0.5 mg/ml. After 3 hours, medium was removed and resulting formazan in the cells was dissolved in DMSO. The absorbance was measured at 570 nm (640 nm reference wavelength). The IC50 values were calculated from the dose-response curves. 6-Benzylaminopurine riboside and 6-furfurylaminopurine riboside were used as positive controls they were toxic in the MTT test.

[6] = system: skin fibroblasts BJ and keratinocytes HaCaT; test: SRB in vitro toxicity test; format: cell-based; settings: 72 hour treatment, maximal concentration 50 microM
Experimental: SRB (sulforhodamine B) assay is a standard toxicity test based on a photometric measurement of the cellular protein content after the staining with sulphorhodamine B. Using the assay, the effects of 72 hour treatments with several concentrations of the compounds (sixfold dilution, maximal concentration=50 microM) on viability of skin fibroblasts BJ and keratinocytes HaCaT were evaluated. About 5,000 cells were seeded per well of a 96-well plate 24 hours before the treatment. DMSO vehiculum was used as a negative non-toxic control. 6-benzylaminopurine riboside a 6-furfurylaminopurin riboside were used as positive toxic controls. After three days the medium was removed and the cells fixed with 10% (wt/vol) trichloroacetic acid. After the extensive washing in distilled water, 0.4% (wt/vol) solution of SRB in acetic acid was added and the fixed cells were stained for 30 minutes. The unbound stain was washed away by distilled water and the bound SRB was solubilized in unbuffered 10 mM Tris base. Absorbance was measured at 564 nm. IC50 values were calculated from dose-response curves.

## OC[C@H]1O[C@@H](n2cnc3c(NCc4cccc(Cl)c4)ncnc32)C[C@@H]1O [3-chlorobenzylamino-9-β-D-2′-deoxyribosylpurine]
[1]
  GI50: > 100 µM
[2]
  GI50: > 100 µM
[3]
  GI50: > 100 µM

## COc1ccc(CNc2ncnc3c2ncn3[C@@H]2O[C@H](CO)[C@@H](O)[C@H]2O)cc1OC [6-(3,4-dimethoxybenzylamino)-9-riboside, reference compound]
[4]
  maximum effective concentration: 10^−4 mol · l^−1
  activity (%) [10^−4 mol · l^−1 BAP = 100%]: 47 ± 6%

## OC[C@H]1O[C@@H](n2cnc3c(NCc4ccccc4Br)ncnc32)[C@@H](O)[C@@H]1O [6-(2-bromobenzylamino)-9-β-D-arabinofuranosylpurine]
[4]
  activity (%) [10^−4 mol · l^−1 BAP = 100%]: 186 ± 19%

## COc1cccc(CNc2ncnc3c2ncn3[C@@H]2O[C@H](CO)[C@@H](O)[C@@H]2O)c1OC [6-(2,3-dimethoxybenzylamino)-9-β-D-arabinofuranosylpurine]
[5]; Homo sapiens
  IC50: 49 µM
[6]; Homo sapiens
  IC50: > 50 µM

## OC[C@H]1O[C@@H](n2cnc3c(NCc4ccc(Cl)cc4Cl)ncnc32)[C@H](O)[C@@H]1O [6-(2,4-dichlorbenzylamino)-9-riboside, reference compound]
[4]
  maximum effective concentration: 10^−4 mol · l^−1
  activity (%) [10^−4 mol · l^−1 BAP = 100%]: 5 ± 1%

## 3-chloro-4-fluorobenzylamino-9-β-D-arabinofuranosylpurine
[1]
  GI50: > 100 µM
[2]
  GI50: > 100 µM
[3]
  GI50: > 100 µM

## OC[C@H]1O[C@@H](n2cnc3c(NCc4ccc(Cl)cc4)ncnc32)[C@@H](O)[C@@H]1O [4-chlorobenzylamino-9-β-D-arabinofuranosylpurine]
[1]
  GI50: > 100 µM
[2]
  GI50: > 100 µM
[3]
  GI50: > 100 µM

## OC[C@H]1O[C@@H](n2cnc3c(NCc4ccccc4F)ncnc32)[C@@H](O)[C@@H]1O [2-fluorobenzylamino-9-β-D-arabinofuranosylpurine]
[1]
  GI50: 87 µM
[2]
  GI50: > 100 µM
[3]
  GI50: > 100 µM

## COc1ccc(CNc2ncnc3c2ncn3[C@@H]2O[C@H](CO)[C@@H](O)[C@@H]2O)cc1OC [6-(3,4-dimethoxybenzylamino)-9-β-D-arabinofuranosylpurine]
[4]
  activity (%) [10^−4 mol · l^−1 BAP = 100%]: 147 ± 6%

## Nc1cccc(CNc2ncnc3c2ncn3[C@@H]2O[C@H](CO)[C@@H](O)[C@@H]2O)c1 [6-(3-aminobenzylamino)-9-β-D-arabinofuranosylpurine]
[5]; Homo sapiens
  IC50: > 50 µM
[6]; Homo sapiens
  IC50: > 50 µM

## OC[C@H]1O[C@@H](n2cnc3c(NCc4ccccc4O)ncnc32)C[C@@H]1O [6-(2-hydroxybenzylamino)-9-β-D-2′-deoxyribofuranosylpurine]
[5]
  IC50: > 50 µM
[6]
  IC50: > 50 µM

## OC[C@H]1O[C@@H](n2cnc3c(NCc4cccc(O)c4)ncnc32)[C@@H](O)[C@@H]1O [6-(3-hydroxybenzylamino)-9-β-D-arabinofuranosylpurine]
[5]; Homo sapiens
  IC50: > 50 µM
[6]; Homo sapiens
  IC50: > 50 µM

## OC[C@H]1O[C@@H](n2cnc3c(NCc4cccc(Br)c4)ncnc32)[C@@H](O)[C@@H]1O [6-(3-bromobenzylamino)-9-β-D-arabinofuranosylpurine]
[4]
  activity (%) [10^−4 mol · l^−1 BAP = 100%]: 198 ± 10%

## Cc1ccc(CNc2ncnc3c2ncn3[C@@H]2O[C@H](CO)[C@@H](O)[C@@H]2O)cc1 [4-methylbenzylamino-9-β-D-arabinofuranosylpurine]
[1]
  GI50: 95 µM
[2]
  GI50: > 100 µM
[3]
  GI50: > 100 µM

## OC[C@H]1O[C@@H](n2cnc3c(NCc4ccccc4Cl)ncnc32)[C@@H](O)[C@@H]1O [6-(2-chlorobenzylamino)-9-β-D-arabinofuranosylpurine]
[5]; Homo sapiens
  IC50: > 50 µM
[6]; Homo sapiens
  IC50: > 50 µM

## OC[C@H]1O[C@@H](n2cnc3c(NCc4cccc(O)c4)ncnc32)C[C@@H]1O [3-hydroxybenzylamino-9-β-D-2′-deoxyribosylpurine]
[1]
  GI50: > 100 µM
[2]
  GI50: > 100 µM
[3]
  GI50: > 100 µM

## OC[C@H]1O[C@@H](n2cnc3c(NCc4ccco4)ncnc32)C[C@@H]1O [6-(furfurylamino)-9-β-D-2′-deoxyribofuranosylpurine]
[5]
  IC50: > 50 µM
[6]
  IC50: > 50 µM

## OC[C@H]1O[C@@H](n2cnc3c(NCc4cccc(Cl)c4)ncnc32)[C@H](O)[C@@H]1O [6-(3-chlorobenzylamino)-9-riboside, reference compound]
[4]
  maximum effective concentration: 10^−4 mol · l^−1
  activity (%) [10^−4 mol · l^−1 BAP = 100%]: 72 ± 8%

## OC[C@H]1O[C@@H](n2cnc3c(NCc4cccc(I)c4)ncnc32)[C@H](O)[C@@H]1O [6-(3-iodobenzylamino)-9-riboside, reference compound]
[4]
  maximum effective concentration: 10^−4 mol · l^−1
  activity (%) [10^−4 mol · l^−1 BAP = 100%]: 58 ± 19%

## OC[C@H]1O[C@@H](n2cnc3c(NCc4cccc(Br)c4)ncnc32)[C@H](O)[C@@H]1O [6-(3-bromobenzylamino)-9-riboside, reference compound]
[4]
  maximum effective concentration: 10^−4 mol · l^−1
  activity (%) [10^−4 mol · l^−1 BAP = 100%]: 89 ± 10%

## OC[C@H]1OC(n2cnc3c(NCc4ccco4)ncnc32)[C@H](O)[C@@H]1O (stereo partly shown) [6-furfurylamino-9-ribosylpurine, reference compound]
[5]; Homo sapiens
  IC50: ≤ 3 µM
[5]; positive controls
  toxicity in the MTT test: toxic
[6]; Homo sapiens
  IC50: ≤ 3 µM

## OC[C@H]1O[C@@H](n2cnc3c(NCc4ccc(Br)cc4)ncnc32)[C@@H](O)[C@@H]1O [6-(4-bromobenzylamino)-9-β-D-arabinofuranosylpurine]
[4]
  activity (%) [10^−4 mol · l^−1 BAP = 100%]: 176 ± 11%

## OC[C@H]1O[C@@H](n2cnc3c(NCc4cccc(I)c4)ncnc32)[C@@H](O)[C@@H]1O [6-(3-iodobenzylamino)-9-β-D-arabinofuranosylpurine]
[5]; Homo sapiens
  IC50: > 50 µM
[6]; Homo sapiens
  IC50: > 50 µM
[4]
  activity (%) [10^−4 mol · l^−1 BAP = 100%]: 198 ± 4%

## 2,4-dimethoxybenzylamino-9-β-D-arabinofuranosylpurine
[1]
  GI50: 98 µM
[2]
  GI50: > 100 µM
[3]
  GI50: > 100 µM

## COc1ccc(CNc2ncnc3c2ncn3[C@@H]2O[C@H](CO)[C@@H](O)[C@@H]2O)c(OC)c1OC [6-(2,3,4-trimethoxybenzylamino)-9-β-D-arabinofuranosylpurine]
[5]; Homo sapiens
  IC50: 48 µM
[6]; Homo sapiens
  IC50: > 50 µM
